Experimental data from patent publication US11154569B2, “Ruthenium μ-nitrido complexes and their use as calcium uptake inhibitors” (CORNELL UNIVERSITY, priority 2018, dated 2021).

Legend:
Water solubility = type: physicochemical
HEK293 cells = assay: Whole cell uptake of ruthenium (GFAAS) in HEK293 cells; type: cell-based, human; conditions: 50 μM, 24 hours
Method: HEK293 cells were grown to near confluence in 75 cm^2 dishes. […] The cells were then treated with culture media containing 50 μM of the complex and incubated at 37° C. for 24 hours. The cells were washed with 1 mL of PBS and harvested using 0.05% trypsin. The cells were pelleted by centrifugation, re-suspended in 1 mL of PBS, and pelleted again. The washing and pelleting step was repeated a total of three times, after which the supernatant was removed and the cells were suspended in 500 μL of lysis buffer containing 1% w/v 3-[3-cholamidopropyl)dimethylammonio]-1-propanesulfonate) (CHAPS), 5 mM ethylenediamine tetraacetic acid (EDTA), and 50 mM tris(hydroxymethyl)aminomethane (Tris) and 100 mM NaCl (pH=7.4). The suspension was vortexed for 30 seconds and incubated on ice for 45 minutes. Control cells not treated with the complexes were handled identically to the treated cells to correct for ruthenium present in the cells, and control dishes were incubated with the complex in the absence of cells to correct for non-specific adsorption of ruthenium to the plastic. If needed, samples were stored in −80° C. until analysis. Ruthenium and protein content of the lysates were determined as described above.

For `N.N.N.N.N.N.N.N.[Cl-].[Cl-].[N-3].[Ru+4].[Ru+4]` [C-2, [Ru2(μ-N)(NH3)8Cl2]Cl3], the solubility (Water solubility) was 1 mg/mL, the “cellular uptake relative to C-1” value (HEK293 cells) was 10 times and the “cellular uptake relative to C-3” value (HEK293 cells) was “over twice as effectively as C-3”.
